The text below walks through data of patent US20260226068A1, “IMIDAZOTRIAZINE IL-17A MODULATORS AND USES THEREOF” (DICE ALPHA, INC., priority 2023, published 2026).

In one experiment the target is T1, IL-17A/A (Homo sapiens, UniProt Q16552).
T1 construct: purchased Genscript Z03228
T1 sequence (Q16552 24-155): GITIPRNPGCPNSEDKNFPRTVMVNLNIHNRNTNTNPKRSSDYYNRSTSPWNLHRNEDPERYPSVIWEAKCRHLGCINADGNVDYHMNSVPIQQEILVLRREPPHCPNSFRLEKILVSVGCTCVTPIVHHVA
As to the kind of experiment: IL-17A/A HEK-Blue cell assay (SEAP reporter). The class given is cell-based. The following applies: HEK-Blue IL-17A reporter cells, IL17A/A 5 ng/mL, 20 hours, SEAP read at A630; read-out: HEK-Blue IL17AA (IC50 for IL-17A/A inhibition).

In another experiment the target is T2, IL-17A/F (Homo sapiens, UniProt Q16552+Q96PD4).
T2 construct: purchased R&D Systems
T2 sequence (Q16552 24-155): T1 sequence (Q16552 24-155)
T2 sequence (Q96PD4 31-163): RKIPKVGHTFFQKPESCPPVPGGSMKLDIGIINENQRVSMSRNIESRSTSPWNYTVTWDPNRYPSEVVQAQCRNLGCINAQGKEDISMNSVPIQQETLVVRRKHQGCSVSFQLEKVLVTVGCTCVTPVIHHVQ
The experiment can be described thus: IL-17A/F HEK-Blue cell assay (SEAP reporter). It counts as cell-based. The note with it: HEK-Blue IL-17A reporter cells, IL17A/F 5 ng/mL, 20 hours, SEAP read at A630; read-out: HEK-Blue IL17AF (IC50 for IL-17A/F inhibition).

With `CC(F)(F)c1nocc1C(=O)N[C@H](c1cn2nc(C[C@H]3C[C@@H](C(F)(F)F)CNC3=O)c(C3CCOCC3)nc2n1)C1CCC(F)(F)CC1` [Compound 260, N—((S)-(4,4-difluorocyclohexyl)(2-(((3R,5R)-2-oxo-5-(trifluoromethyl)piperidin-3-yl)methyl)-3-(tetrahydro-2H-pyran-4-yl)imidazo[1,2-b][1,2,4]triazin-6-yl)methyl)-3-(1,1-difluoroethyl)isoxazole-4-carboxamide], the IC50 on IL-17A/A was less than 100 nM; on IL-17A/F, 100 to 1000 nM.
On to `CC(C)c1nc2nc([C@@H](NC(=O)c3ccnn3C)C3CCC(F)(F)CC3)cn2nc1C[C@H]1C[C@@H](C(F)(F)F)CNC1=O` [Compound 261, N—((S)-(4,4-difluorocyclohexyl)(3-isopropyl-2-(((3R,5R)-2-oxo-5-(trifluoromethyl)piperidin-3-yl)methyl)imidazo[1,2-b][1,2,4]triazin-6-yl)methyl)-1-methyl-1H-pyrazole-5-carboxamide], for which the IC50 on IL-17A/A was less than 100 nM; at IL-17A/F, 100 to 1000 nM.
Taken in the same sequence, the figures for `Cn1nccc1C(=O)N[C@H](c1cn2nc(C[C@H]3C[C@@H](C(F)(F)F)CNC3=O)c(C3CCC(F)(F)CC3)nc2n1)C1CCC(F)(F)CC1` [Compound 262, N—((S)-(4,4-difluorocyclohexyl)(3-(4,4-difluorocyclohexyl)-2-(((3R,5R)-2-oxo-5-(trifluoromethyl)piperidin-3-yl)methyl)imidazo[1,2-b][1,2,4]triazin-6-yl)methyl)-1-methyl-1H-pyrazole-5-carboxamide] were less than 100 nM and 100 to 1000 nM.
With `CCn1nccc1C(=O)N[C@H](c1cn2nc(C[C@H]3C[C@@H](C(F)(F)F)CNC3=O)c(C3(OC)CCOCC3)nc2n1)C1CCC(F)(F)CC1` [Compound 269, N—((S)-(4,4-difluorocyclohexyl)(3-(4-methoxytetrahydro-2H-pyran-4-yl)-2-(((3R,5R)-2-oxo-5-(trifluoromethyl)piperidin-3-yl)methyl)imidazo[1,2-b][1,2,4]triazin-6-yl)methyl)-1-ethyl-1H-pyrazole-5-carboxamide], the IC50 on IL-17A/A is less than 100 nM; on IL-17A/F, greater than 1000 nM.
`CCn1nccc1C(=O)N[C@H](c1cn2nc(C[C@H]3C[C@@H](C(F)(F)F)CNC3=O)c(C3(OC)CCC(F)(F)CC3)nc2n1)C1CCC(F)(F)CC1` [Compound 270, N—((S)-(3-(4,4-difluoro-1-methoxycyclohexyl)-2-(((3R,5R)-2-oxo-5-(trifluoromethyl)piperidin-3-yl)methyl)imidazo[1,2-b][1,2,4]triazin-6-yl)(4,4-difluorocyclohexyl)methyl)-1-ethyl-1H-pyrazole-5-carboxamide]: the IC50 at IL-17A/A is less than 100 nM; at IL-17A/F it was greater than 1000 nM.
Taken in the same sequence, the figures for `CCn1nccc1C(=O)N[C@H](c1cn2nc(C[C@H]3C[C@@H](C(F)(F)F)CNC3=O)c(C(C)(F)F)nc2n1)C1CCC(F)(F)CC1` [Compound 273, N—((S)-(4,4-difluorocyclohexyl)(3-(1,1-difluoroethyl)-2-(((3R,5R)-2-oxo-5-(trifluoromethyl)piperidin-3-yl)methyl)imidazo[1,2-b][1,2,4]triazin-6-yl)methyl)-1-ethyl-1H-pyrazole-5-carboxamide] were less than 100 nM and greater than 1000 nM.
Taken in the same sequence, the figures for `CCn1nccc1C(=O)N[C@H](c1cn2nc(C[C@H]3C[C@@H](C(F)(F)F)CNC3=O)c(CCOC)nc2n1)C1CCC(F)(F)CC1` [Compound 276, N—((S)-(4,4-difluorocyclohexyl)(3-(2-methoxyethyl)-2-(((3R,5R)-2-oxo-5-(trifluoromethyl)piperidin-3-yl)methyl)imidazo[1,2-b][1,2,4]triazin-6-yl)methyl)-1-ethyl-1H-pyrazole-5-carboxamide] were less than 100 nM and 100 to 1000 nM.
Taken in the same sequence, the figures for `Cn1nccc1C(=O)N[C@H](c1cn2nc(C[C@H]3C[C@@H](C(F)(F)F)CNC3=O)c(C3CCOCC3)nc2n1)[C@@H]1CCCC(F)(F)C1` [Compound 277, N—((S)—((R)-3,3-difluorocyclohexyl)(2-(((3R,5R)-2-oxo-5-(trifluoromethyl)piperidin-3-yl)methyl)-3-(tetrahydro-2H-pyran-4-yl)imidazo[1,2-b][1,2,4]triazin-6-yl)methyl)-1-methyl-1H-pyrazole-5-carboxamide] were less than 100 nM and 100 to 1000 nM.
Turning to `Cn1nccc1C(=O)N[C@H](c1cn2nc(C[C@H]3C[C@@H](C(F)(F)F)CNC3=O)c(C3CCOCC3)nc2n1)[C@H]1CCCC(F)(F)C1` [Compound 278, N—((S)—((S)-3,3-difluorocyclohexyl)(2-(((3R,5R)-2-oxo-5-(trifluoromethyl)piperidin-3-yl)methyl)-3-(tetrahydro-2H-pyran-4-yl)imidazo[1,2-b][1,2,4]triazin-6-yl)methyl)-1-methyl-1H-pyrazole-5-carboxamide], the IC50 was less than 100 nM at IL-17A/A and 100 to 1000 nM on IL-17A/F.
Taken in the same sequence, the figures for `CCn1nccc1C(=O)N[C@H](c1cn2nc(C[C@H]3CC(F)(F)CNC3=O)c(C3CCOCC3)nc2n1)C1CCC(F)(F)CC1` [Compound 279] were less than 100 nM and greater than 1000 nM.
Taken in the same sequence, the figures for `Cn1nccc1C(=O)N[C@H](c1cn2nc(C[C@H]3C[C@@H](C(F)(F)F)CNC3=O)c(C3(C)CCOCC3)nc2n1)C1CCC(F)(F)CC1` [Compound 280, N—((S)-(4,4-difluorocyclohexyl)(3-(4-methyltetrahydro-2H-pyran-4-yl)-2-(((3R,5R)-2-oxo-5-(trifluoromethyl)piperidin-3-yl)methyl)imidazo[1,2-b][1,2,4]triazin-6-yl)methyl)-1-methyl-1H-pyrazole-5-carboxamide] were less than 100 nM and greater than 1000 nM.
Taken in the same sequence, the figures for `CCn1nccc1C(=O)N[C@H](c1cn2nc(C[C@H]3C[C@@H](C(F)(F)F)CC3=O)c(C3CCOCC3)nc2n1)C(C1CC1)C1CC1` [Compound 281] were less than 100 nM and 100 to 1000 nM.
In the case of `CCn1nccc1C(=O)N[C@H](c1cn2nc(C[C@H]3C[C@@H](C(F)(F)F)CNC3=O)c(N3CCO[C@H](C)C3)nc2n1)C1CCC(F)(F)CC1` [Compound 282, N—((S)-(4,4-difluorocyclohexyl)(3-((R)-2-methylmorpholino)-2-(((3R,5R)-2-oxo-5-(trifluoromethyl)piperidin-3-yl)methyl)imidazo[1,2-b][1,2,4]triazin-6-yl)methyl)-1-ethyl-1H-pyrazole-5-carboxamide], the IC50 at IL-17A/A and at IL-17A/F was less than 100 nM throughout.
In the case of `CCn1nccc1C(=O)N[C@H](c1cn2nc(C[C@H]3C[C@@H](C(F)(F)F)CNC3=O)c(N3CCO[C@@H](C)C3)nc2n1)C1CCC(F)(F)CC1` [Compound 283, N—((S)-(4,4-difluorocyclohexyl)(3-((S)-2-methylmorpholino)-2-(((3R,5R)-2-oxo-5-(trifluoromethyl)piperidin-3-yl)methyl)imidazo[1,2-b][1,2,4]triazin-6-yl)methyl)-1-ethyl-1H-pyrazole-5-carboxamide], the results for the IC50 on IL-17A/A and on IL-17A/F were less than 100 nM and 100 to 1000 nM, respectively.
Taken in the same sequence, the figures for `CCn1nccc1C(=O)N[C@H](c1cn2nc(C[C@H]3C[C@@H](C(F)(F)F)CNC3=O)c([C@@H]3CCNC3)nc2n1)C1CCC(F)(F)CC1` [Compound 284, N-((1S)-(4,4-difluorocyclohexyl)(2-(((3R,5R)-2-oxo-5-(trifluoromethyl)piperidin-3-yl)methyl)-3-(pyrrolidin-3-yl)imidazo[1,2-b][1,2,4]triazin-6-yl)methyl)-1-ethyl-1H-pyrazole-5-carboxamide] were 100 to 1000 nM and greater than 1000 nM.
Taken in the same sequence, the figures for `CCn1nccc1C(=O)N[C@H](c1cn2nc(C[C@H]3C[C@@H](C(F)(F)F)CNC3=O)c(CNC)nc2n1)C1CCC(F)(F)CC1` [Compound 286, N—((S)-(4,4-difluorocyclohexyl)(3-((methylamino)methyl)-2-(((3R,5R)-2-oxo-5-(trifluoromethyl)piperidin-3-yl)methyl)imidazo[1,2-b][1,2,4]triazin-6-yl)methyl)-1-ethyl-1H-pyrazole-5-carboxamide] were 100 to 1000 nM and greater than 1000 nM.
Taken in the same sequence, the figures for `CCn1nccc1C(=O)N[C@H](c1cn2nc(C[C@H]3C[C@@H](C(F)(F)F)CNC3=O)c(CN(C)C)nc2n1)C1CCC(F)(F)CC1` [Compound 287, N—((S)-(4,4-difluorocyclohexyl)(3-((dimethylamino)methyl)-2-(((3R,5R)-2-oxo-5-(trifluoromethyl)piperidin-3-yl)methyl)imidazo[1,2-b][1,2,4]triazin-6-yl)methyl)-1-ethyl-1H-pyrazole-5-carboxamide] were 100 to 1000 nM and greater than 1000 nM.
Regarding `CCn1nccc1C(=O)N[C@H](c1cn2nc(C[C@H]3C[C@@H](C(F)(F)F)CNC3=O)c(CN3CCCCC3)nc2n1)C1CCC(F)(F)CC1` [Compound 288, N—((S)-(4,4-difluorocyclohexyl)(2-(((3R,5R)-2-oxo-5-(trifluoromethyl)piperidin-3-yl)methyl)-3-(piperidin-1-ylmethyl)imidazo[1,2-b][1,2,4]triazin-6-yl)methyl)-1-ethyl-1H-pyrazole-5-carboxamide], the IC50 is less than 100 nM at IL-17A/A and greater than 1000 nM at IL-17A/F.
